Results: patent publication US20230303483A1, “USE OF STROBILURIN TYPE COMPOUNDS FOR COMBATING PHYTOPATHOGENIC FUNGI CONTAINING AN AMINO ACID SUBSTITUTION F129L IN THE MITOCHONDRIAL CYTOCHROME B PROTEIN CONFERRING RESISTANCE TO QO […]” (BASF SE, priority 2020, published 2023)

What was measured:
[1] = system: Phakopsora pachyrhizi (strain containing the amino acid substitution F129L in the mitochondrial cytochrome b protein); test: Use example 2: protective control of soybean rust on soybeans (PHAKPA P6), inoculation six days after spraying; format: in vivo; conditions: % diseased leaf area on soybean, 16 ppm spray, inoculation six days after treatment, untreated controls usually >85 %
Description: (§1) The compound was dissolved in a mixture of acetone and/or dimethylsulfoxide and the wetting agent/emulsifier Wettol, which is based on ethoxylated alkylphenoles, in a ratio (volume) solvent-emulsifier of 99 to 1 to give a total volume of 5 ml. Subsequently, water was added to total volume of 100 ml. This stock solution was then diluted with the described solvent-emulsifier-water mixture to the final concentration given in the table below.
Use example 2. Protective control of soybean rust on soybeans caused by Phakopsora pachyrhizi (PHAKPA P6)
(§2) Leaves of potted soybean seedlings were sprayed to run-off with the previously described spray solution, containing the concentration of active ingredient as described below. The plants were allowed to air-dry. The trial plants were cultivated for six days in a greenhouse chamber at 23-27° C. and a relative humidity between 60 and 80 %. Then the plants were inoculated with spores of Phakopsora pachyrhizi. The strain used contains the amino acid substitution F129L in the mitochondrial cytochrome b protein conferring resistance to Qo inhibitors. To ensure the success the artificial inoculation, the plants were transferred to a humid chamber with a relative humidity of about 95 % and 23 to 27° C. for 24 hr. The trial plants were cultivated for up to 14 days in a greenhouse chamber at 23 to 27° C. and a relative humidity between 60 and 80 %. The extent of fungal attack on the leaves was visually assessed as % diseased leaf area, the disease level of untreated controls was usually higher than 85 %.
(§3) All test results below are given for the control of phytopathogenic fungi containing the amino acid substitution F129L in the mitochondrial cytochrome b protein conferring resistance to Qo inhibitors.

[2] = system: Phakopsora pachyrhizi (strain containing the amino acid substitution F129L in the mitochondrial cytochrome b protein); test: Use example 1: protective control of soybean rust on soybeans (PHAKPA P2), inoculation 2 days after spraying; format: in vivo; conditions: % diseased leaf area on soybean, 16 ppm spray, inoculation 2 days after treatment, untreated controls usually >85 %
Description: as §1
Use example 1. Protective control of soybean rust on soybeans caused by Phakopsora pachyrhizi (PHAKPA P2)
as §2, with “active ingredient or their mixture as described” for “active ingredient as described”, “cultivated for 2 days in” for “cultivated for six days in”, “% and 20 to 24°” for “% and 23 to 27°”, “20 to 24° C. for” for “23 to 27° C. for”
as §3

| Compound | PHAKPA Disease level (%) P6 at 16 ppm [1] | PHAKPA Disease level (%) P2 at 16 ppm [2] |
| --- | --- | --- |
| CO/N=C(/C(=O)OC)c1ccccc1CO/N=C(\C)C#Cc1ccccc1 [Example 1, Methyl (2E)-2-methoxyimino-2-[2-[[(E)-(1-methyl-3-phenyl-prop-2-ynylidene)amino]-oxymethyl]phenyl]acetate] | 58% | 38% |
| CNC(=O)/C(=N/OC)c1ccccc1CO/N=C(\C)C#Cc1ccccc1 [Example 2, (2E)-2-Methoxyimino-N-methyl-2-[2-[[(E)-(1-methyl-3-phenyl-prop-2-ynylidene)-amino]oxymethyl]phenyl]acetamide] | 90% | 97% |
| CO/N=C(/C(=O)OC)c1ccccc1CO/N=C(\C)C#Cc1ccc(Cl)cc1 [Example 3] | 70% | 70% |
| CNC(=O)/C(=N/OC)c1ccccc1CO/N=C(\C)C#Cc1ccc(Cl)cc1 [Example 4] | 7% | 3% |
| CNC(=O)/C(=N/OC)c1ccccc1CO/N=C(\C)C#Cc1cccc(Br)c1 [Example 5] | 7% | 1% |
| CO/N=C(/C(=O)OC)c1ccccc1CO/N=C(\C)C#Cc1cccc(Br)c1 [Example 6] | 43% | 25% |
| CO/N=C(/C(=O)OC)c1ccccc1CO/N=C(\C)C#Cc1ccc(F)cc1 [Example 7] | 50% | 30% |
| CNC(=O)/C(=N/OC)c1ccccc1CO/N=C(\C)C#Cc1ccc(F)cc1 [Example 8] | 0.7% | 0% |
| CNC(=O)/C(=N/OC)c1ccccc1CO/N=C(\C)C#Cc1ccccc1OC(F)(F)F [Example 9] | 5% | 0% |
| CO/N=C(/C(=O)OC)c1ccccc1CO/N=C(\C)C#Cc1ccccc1OC(F)(F)F [Example 10] | 83% | 70% |
| CNC(=O)/C(=N/OC)c1ccccc1CO/N=C(\C)C#Cc1ccc(OC(F)(F)F)cc1 [Example 11, (2E)-2-Methoxyimino-N-methyl-2-[2-[[(E)-[1-methyl-3-[4-(trifluoromethoxy)phenyl]-prop-2-ynylidene]amino]oxymethyl]phenyl]acetamide] | 67% | 53% |
| CO/N=C(/C(=O)OC)c1ccccc1CO/N=C(\C)C#Cc1ccc(OC(F)(F)F)cc1 [Example 12, methyl(2E)-2-methoxyimino-2-[2-[[(E)-[1-methyl-3-[4-(trifluoromethoxy)phenyl]prop-2-ynylidene]amino]oxymethyl]phenyl]acetate] | 100% | 93% |
| CNC(=O)/C(=N/OC)c1cccc(C)c1CO/N=C(\C)C#Cc1ccccc1 [Example 16, (2E)-2-Methoxyimino-N-methyl-2-[3-methyl-2-[[(E)-(1-methyl-3-phenyl-prop-2-ynylidene)amino]oxymethyl]phenyl]acetamide] | 0% | 0% |
| CNC(=O)/C(=N/OC)c1cccc(C)c1CO/N=C(\C)C#Cc1ccc(C)cc1 [Example 19] | 0.6% | 0% |
| CO/N=C(/C(=O)OC)c1cccc(C)c1CO/N=C(\C)C#Cc1ccc(C)cc1 [Example 20] | 1% | 2% |
| CNC(=O)/C(=N/OC)c1cccc(C)c1CO/N=C(\C)C#Cc1ccc(OC(F)(F)F)cc1 [Example 21, (2E)-2-Methoxyimino-N-methyl-2-[3-methyl-2-[[(E)-[1-methyl-3-[4-(trifluoromethoxy)phenyl]prop-2-ynylidene]amino]oxymethyl]phenyl]acetamide] | 33% | 25% |
| CO/N=C(/C(=O)OC)c1cccc(C)c1CO/N=C(\C)C#Cc1ccc(OC(F)(F)F)cc1 [Example 22, methyl (2E)-2-methoxyimino-2-[3-methyl-2-[[(E)-[1-methyl-3-[4-(trifluoromethoxy)-phenyl]prop-2-ynylidene]amino]oxymethyl]phenyl]acetate] | 97% | 93% |
| CO/N=C(/C(=O)OC)c1cccc(C)c1CO/N=C(\C)C#Cc1ccccc1C [Example 23] | 0% | 0% |
| CNC(=O)/C(=N/OC)c1cccc(C)c1CO/N=C(\C)C#Cc1ccccc1OC(F)(F)F [Example 25] | 0% | 0% |
| CO/N=C(/C(=O)OC)c1cccc(C)c1CO/N=C(\C)C#Cc1ccccc1OC(F)(F)F [Example 26] | 6% | 2% |

| Compound | PHAKPA Disease level (%) P6 at 16 ppm [1] | PHAKPA Disease level (%) P2 at 16 ppm [2] |
| --- | --- | --- |
| CNC(=O)/C(=N/OC)c1cccc(C)c1CO/N=C(\C)C#Cc1cccc(OC(F)(F)F)c1 [Example 27] | 0% | 0% |
| CO/N=C(/C(=O)OC)c1cccc(C)c1CO/N=C(\C)C#Cc1cccc(OC(F)(F)F)c1 [Example 28] | 0% | 0% |
| CNC(=O)/C(=N/OC)c1cccc(C)c1CO/N=C(\C)C#Cc1cccc(Br)c1 [Example 29] | 0% | 1% |
| CO/N=C(/C(=O)OC)c1cccc(C)c1CO/N=C(\C)C#Cc1cccc(Br)c1 [Example 30] | 0% | 0% |
| CNC(=O)/C(=N/OC)c1cccc(C)c1CO/N=C(\C)C#Cc1ccc(Cl)cc1 [Example 31] | 5% | 0% |
| CO/N=C(/C(=O)OC)c1cccc(C)c1CO/N=C(\C)C#Cc1ccc(Cl)cc1 [Example 32] | 35% | 12% |
| CNC(=O)/C(=N/OC)c1cccc(C)c1CO/N=C(\C)C#Cc1ccc(F)cc1 [Example 33] | 0% | 0% |
| CO/N=C(/C(=O)OC)c1cccc(C)c1CO/N=C(\C)C#Cc1ccc(F)cc1 [Example 34] | 0% | 0% |
| CO/N=C(/C(=O)OC)c1ccccc1CO/N=C(\C)C#Cc1cccc(F)c1 [Example 35] | 25% | 32% |
| CO/N=C(/C(=O)OC)c1cccc(C)c1CO/N=C(\C)C#Cc1cccc(F)c1 [Example 36] | 9% | 4% |
| CNC(=O)/C(=N/OC)c1ccccc1CO/N=C(\C)C#Cc1cccc(F)c1 [Example 37] | 8% | 6% |
| CNC(=O)/C(=N/OC)c1cccc(C)c1CO/N=C(\C)C#Cc1cccc(F)c1 [Example 38] | 1% | 0% |
| CO/N=C(/C(=O)OC)c1cccc(C)c1CO/N=C(\C)C#Cc1cccc(C(F)(F)F)c1 [Example 39] | 1% | 2% |
| CNC(=O)/C(=N/OC)c1cccc(C)c1CO/N=C(\C)C#Cc1cccc(C(F)(F)F)c1 [Example 40] | 0% | 0% |
| CO/N=C(/C(=O)OC)c1ccccc1CO/N=C(\C)C#Cc1cccc(C(F)(F)F)c1 [Example 41] | 67% | 50% |
| CO/N=C(/C(=O)OC)c1cccc(C)c1CO/N=C(\C)C#Cc1cccc(C)c1 [Example 42] | 6% | 3% |
| CO/N=C(/C(=O)OC)c1ccccc1CO/N=C(\C)C#Cc1cccc(C)c1 [Example 43] | 27% | 40% |
| CNC(=O)/C(=N/OC)c1ccccc1CO/N=C(\C)C#Cc1cccc(C(F)(F)F)c1 [Example 44] | 5% | 1% |
| CO/N=C(/C(=O)OC)c1cccc(C)c1CO/N=C(\C)C#Cc1ccccc1Br [Example 45] | 22% | 25% |
